Test results as given in publication PMC6706161, “A surface plasmon resonance-based method for monitoring interactions between G protein-coupled receptors and interacting proteins” (Journal of Biological Methods, 2016).
No end group written: not given here.

Molecular target: T1, S100B (Bos taurus, UniProt P02638)
T1 construct: S100B, purified from bovine brain; purchased Merck Millipore 559290; host or cells: bovine brain (tissue-purified)
T1 sequence (P02638 2-92 limits assumed): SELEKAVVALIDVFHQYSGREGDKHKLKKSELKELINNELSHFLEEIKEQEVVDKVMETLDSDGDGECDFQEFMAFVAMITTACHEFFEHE
Test: SPR (Biacore 3000) steady-state binding of S100B to immobilized peptide h5-HT7_IC3
Conditions: 95% CI [3.93, 6.71], peptide amine-coupled to CM5 chip (about 1200 RU), mock-immobilized reference surface, analyte S100B purified from bovine brain, 0.38 to 12 µM (two experiments) and 1.25 to 40 µM (third), duplicates, running buffer 10 mM HEPES, 150 mM NaCl, 4 mM CaCl2, 0.005% Tween-20, pH 7.5, 25 °C, one-site binding model, three experiments, read-out: Kd (dissociation constant, affinity)
Text: • Custom peptides (> 95% pure) can be obtained from a number of commercial sources. In our hands, peptides from Selleck Chemicals (Houston, TX) have worked well. • S100B, purified from bovine brain (Cat. # 559290; Merck Millipore, Darmstadt, Germany) • Sensor Chip CM5 (single: Cat. # BR-1003-99; pack of three chips: Cat. # BR-1000-12; GE Healthcare) • Plastic Vials, Ø 7 mm; pack of 1000 vials (Cat. # BR-1002-12; GE Healthcare) • Rubber Caps, type 3; pack of 600 caps (Cat. # BR-1005-02; GE Healthcare) • Immobilization buffers: 10 mM sodium acetate, pH 4.0 (Cat. # BR-1003-49) and pH 4.5 (Cat. # BR-1003-50; GE Healthcare); 1 × 50 ml each • HBS-EP (Cat. # BR100188, 6 x 200 ml; GE Healthcare) • NaOH (Cat. # S8045; Sigma-Aldrich, Stockholm, Sweden) • DMSO (Cat. # D2650; Sigma-Aldrich) • Amine Coupling Kit (contains EDC, NHS and 1.0 M ethanolamine-HCl pH 8.5; Cat. # BR100050; GE Healthcare) • HEPES (Cat. # H3375; Sigma-Aldrich) • NaCl (Cat. # S7653; Sigma-Aldrich) • CaCl2 · 2H2O (Cat. # C8106; Sigma-Aldrich) • Tween-20 (Cat. # P1379; Sigma-Aldrich) • EDTA disodium salt (Cat. # E5134; Sigma-Aldrich) • Syringe filters, 0.2 µm pore size (Cat. # 83.1826.001; Sarstedt, Helsingborg, Sweden) • Bottle top filtration unit, 0.45 µm pore size (Cat. # 83.1823.100; Sarstedt)
Running buffer with Ca2+: 10 mM HEPES, 150 mM NaCl, 4 mM CaCl2, 0.005% Tween-20; pH 7.5. Store at 4 °C between experiments. […]

- Kd: 5.32 µM
Sequence: KFPGFPRVEPDSVIALNGIV [h5-HT7_IC3]
